Source: patent publication US20260000656A1, “ANTIFUNGAL AGENTS WITH ENHANCED ACTIVITY IN ACIDIC PH” (Scynexis, Inc., priority 2017, published 2026)
In brackets after ≈: the same amount, converted by molar mass. Like-named read-outs stand apart in the source and are kept apart here.

Tested on: C. albicans isolates
Test: Broth microdilution susceptibility (CLSI M27-A3) at different medium pH
Format: cell-based, Candida albicans
Procedure: Ten strains each of C. glabrata and C. albicans vaginal isolates were tested. The strains were obtained from recent clinical trial patients with vulvovaginal candidiasis (VVC) prior to treatment. Candida strains were obtained from the Mycology Reference Library (MRL) at Case Western Reserve University School of Medicine, Ohio, United States.
Susceptibility testing was performed using a broth microdilution method, according to CLSI M27-A3 guidelines (CLSI. 2008. Reference Method for Broth Dilution Antifungal Susceptibility Testing of Yeasts; Approved Standard—Third Edition. Clinical and Laboratory Standards Institute, CLSI document M27-A3). Antifungals and concentrations tested were SCY-078 and micafungin (both at concentrations within the range of 0.015 to 8 μg/ml) and fluconazole (at concentrations within the range of 0.125 to 64 μg/ml). A 0.1-ml C. albicans and C. glabrata inoculum of 0.5-2.5×10^3 blastospores/ml in RPMI 1640 medium was added to each microdilution well. ATCC strains of Candida parapsilosis and Candida krusei QC isolates were also included concurrently to ensure quality control. Antifungal susceptibility testing was carried out for each isolate in RPMI 1640 at pH 7 (to mimic RPMI medium used in testing the susceptibility of yeast by the CLSI M-27A3 document), pH 5.7, and pH 4.5 (to mimic the pH of the vaginal cavity) by adjusting the pH of the media using NaOH or HCl. […] Agents Chemother., 43: 1383-1386 (1999).
[…] SCY-078 powder was manufactured by Avista, Laboratories, NC. Micafungin and fluconazole were sourced from LGM Pharma.

[1] = 50% inhibition, pH 4.5, 24 h, 10 vaginal isolates

MIC50 [1]: < 0.016 µg/mL | MIC90 [1]: < 0.016 µg/mL | MIC range [1]: <0.016 to 0.031 µg/mL | MIC range (50% inhibition, pH 5.72, 24 h, 10 vaginal isolates): 0.125 to .25 µg/mL | MIC range (50% inhibition, pH 7.0, 24 h, 10 vaginal isolates): 0.125 to 0.5 µg/mL | MIC range (100% inhibition, pH 4.5, 24 hours, 10 isolates): <0.016 to 4 µg/mL | MIC range (100% inhibition, pH 5.72, 24 hours, 10 isolates): 0.25 to 2 µg/mL | MIC range (100% inhibition, pH 7.0, 24 hours, 10 isolates): 0.25 to 4 µg/mL | reduction in MIC50 at pH 4.5 compared to the MIC50 at pH 7.0 (C. albicans isolates): 16 fold | MIC50 (Candida albicans, 24 h, pH 4.5, 50% inhibition, pH 4.5, 24 h, 10 vaginal isolates, read-out: MIC50): < 0.016 µg/mL | MIC90 (Candida albicans, 24 h, pH 4.5, 50% inhibition, pH 4.5, 24 h, 10 vaginal isolates, read-out: MIC90): < 0.016 µg/mL | MIC50 (Candida albicans, 24 h, pH 4.5, 100% inhibition, pH 4.5, 24 hours, 10 isolates, read-out: MIC50): 0.031 µg/mL (≈ 0.0425 µM) | MIC90 (Candida albicans, 24 h, pH 4.5, 100% inhibition, pH 4.5, 24 hours, 10 isolates, read-out: MIC90): 0.031 µg/mL (≈ 0.0425 µM) | MIC (Candida albicans, 24 h, pH 4.5, C. albicans MRL 34366, pH 4.5, 24 hours, read-out: MIC (50% inhibition)): 0.031 µg/mL (≈ 0.0425 µM) | MIC (Candida albicans, 24 h, pH 4.5, C. albicans MRL 34366, pH 4.5, 24 hours, read-out: MIC (100% inhibition)): 0.031 µg/mL (≈ 0.0425 µM) | MIC (Candida albicans, 24 h, pH 4.5, C. albicans MRL 34367, pH 4.5, 24 hours, read-out: MIC (50% inhibition)): < 0.016 µg/mL | MIC (Candida albicans, 24 h, pH 4.5, C. albicans MRL 34367, pH 4.5, 24 hours, read-out: MIC (100% inhibition)): 0.031 µg/mL (≈ 0.0425 µM) | MIC (Candida albicans, 24 h, pH 4.5, C. albicans MRL 34372, pH 4.5, 24 hours, read-out: MIC (50% inhibition)): < 0.016 µg/mL | MIC (Candida albicans, 24 h, pH 4.5, C. albicans MRL 34372, pH 4.5, 24 hours, read-out: MIC (100% inhibition)): < 0.016 µg/mL | MIC (Candida albicans, 24 h, pH 4.5, C. albicans MRL 34373, pH 4.5, 24 hours, read-out: MIC (50% inhibition)): < 0.016 µg/mL | MIC (Candida albicans, 24 h, pH 4.5, C. albicans MRL 34373, pH 4.5, 24 hours, read-out: MIC (100% inhibition)): < 0.016 µg/mL | MIC (Candida albicans, 24 h, pH 4.5, C. albicans MRL 34374, pH 4.5, 24 hours, read-out: MIC (50% inhibition)): < 0.016 µg/mL | MIC (Candida albicans, 24 h, pH 4.5, C. albicans MRL 34374, pH 4.5, 24 hours, read-out: MIC (100% inhibition)): < 0.016 µg/mL | MIC (Candida albicans, 24 h, pH 4.5, C. albicans MRL 34385, pH 4.5, 24 hours, read-out: MIC (50% inhibition)): < 0.016 µg/mL | MIC (Candida albicans, 24 h, pH 4.5, C. albicans MRL 34385, pH 4.5, 24 hours, read-out: MIC (100% inhibition)): 0.031 µg/mL (≈ 0.0425 µM) | MIC (Candida albicans, 24 h, pH 4.5, C. albicans MRL 34389, pH 4.5, 24 hours, read-out: MIC (50% inhibition)): < 0.016 µg/mL | MIC (Candida albicans, 24 h, pH 4.5, C. albicans MRL 34389, pH 4.5, 24 hours, read-out: MIC (100% inhibition)): 0.031 µg/mL (≈ 0.0425 µM) | MIC (Candida albicans, 24 h, pH 4.5, C. albicans MRL 34399, pH 4.5, 24 hours, read-out: MIC (50% inhibition)): < 0.016 µg/mL | MIC (Candida albicans, 24 h, pH 4.5, C. albicans MRL 34399, pH 4.5, 24 hours, read-out: MIC (100% inhibition)): 0.031 µg/mL (≈ 0.0425 µM) | MIC (Candida albicans, 24 h, pH 4.5, C. albicans MRL 34408, pH 4.5, 24 hours, read-out: MIC (50% inhibition)): < 0.016 µg/mL | MIC (Candida albicans, 24 h, pH 4.5, C. albicans MRL 34408, pH 4.5, 24 hours, read-out: MIC (100% inhibition)): 4 µg/mL (≈ 5.48 µM) | MIC (Candida albicans, 24 h, pH 4.5, C. albicans MRL 34449, pH 4.5, 24 hours, read-out: MIC (50% inhibition)): < 0.016 µg/mL | MIC (Candida albicans, 24 h, pH 4.5, C. albicans MRL 34449, pH 4.5, 24 hours, read-out: MIC (100% inhibition)): 0.031 µg/mL (≈ 0.0425 µM) | MIC50 (Candida albicans, 24 h, pH 5.72, 50% inhibition, pH 5.72, 24 h, 10 vaginal isolates, read-out: MIC50): 0.25 µg/mL (≈ 0.342 µM) | MIC90 (Candida albicans, 24 h, pH 5.72, 50% inhibition, pH 5.72, 24 h, 10 vaginal isolates, read-out: MIC90): 0.25 µg/mL (≈ 0.342 µM) | MIC50 (Candida albicans, 24 h, pH 5.72, 100% inhibition, pH 5.72, 24 hours, 10 isolates, read-out: MIC50): 0.25 µg/mL (≈ 0.342 µM) | MIC90 (Candida albicans, 24 h, pH 5.72, 100% inhibition, pH 5.72, 24 hours, 10 isolates, read-out: MIC90): 0.5 µg/mL (≈ 0.685 µM) | MIC (Candida albicans, 24 h, pH 5.72, C. albicans MRL 34366, pH 5.72, 24 hours, read-out: MIC (50% inhibition)): 0.25 µg/mL (≈ 0.342 µM) | MIC (Candida albicans, 24 h, pH 5.72, C. albicans MRL 34366, pH 5.72, 24 hours, read-out: MIC (100% inhibition)): 0.5 µg/mL (≈ 0.685 µM) | MIC (Candida albicans, 24 h, pH 5.72, C. albicans MRL 34367, pH 5.72, 24 hours, read-out: MIC (50% inhibition)): 0.125 µg/mL (≈ 0.171 µM)
Structure (SMILES): CC(C)[C@@H](C)[C@@]1(C)CC[C@]2(C)[C@H]3CC[C@@H]4[C@@]5(COC[C@]4(C)[C@@H](OC[C@](C)(N)C(C)(C)C)[C@H](n4ncnc4-c4ccncc4)C5)C3=CC[C@@]2(C)[C@@H]1C(=O)O [SCY-078]
